{"source": "patent US20200017495A1", "about": "“NOVEL HETEROCYCLIC COMPOUNDS AND THEIR USE IN PREVENTING OR TREATING BACTERIAL INFECTIONS” (priority 2017, published 2020)", "key": {"CTX-M-15": {"target": "CTX-M-15 (Escherichia coli, UniProt Q9EXV5)", "sequence (Q9EXV5 entry or part of it)": "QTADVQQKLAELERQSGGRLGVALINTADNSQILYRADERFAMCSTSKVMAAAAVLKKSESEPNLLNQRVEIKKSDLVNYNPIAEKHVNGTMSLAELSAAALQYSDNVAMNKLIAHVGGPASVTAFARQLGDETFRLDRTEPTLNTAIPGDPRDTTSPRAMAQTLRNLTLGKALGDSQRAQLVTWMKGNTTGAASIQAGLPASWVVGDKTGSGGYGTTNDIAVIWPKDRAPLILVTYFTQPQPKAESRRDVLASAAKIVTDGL", "test": "β-lactamase inhibitory activity, IC50 (nitrocefin hydrolysis)", "type": "biochemical", "procedure": "(§3) Method 1: β-Lactamase Inhibitory Activity, Determination of IC50 (Table 1)\n(§4) Enzymes were cloned in E. coli expression vector, expressed and purified in house using classical procedures. […] After 30 min of pre-incubation at room temperature, 15 μL of NCF (100 μM final) were finally added in each well. […] Enzyme activity was obtained by subtracting the background from the final signal, and was converted to enzyme inhibition using non inhibited wells. IC50 curves were fitted to a classical Langmuir equilibrium model with Hill slope using XLFIT (IDBS)."}, "OXA-48": {"target": "OXA-48 (Klebsiella pneumoniae, UniProt Q6XEC0)", "sequence (Q6XEC0 23-265 limits assumed)": "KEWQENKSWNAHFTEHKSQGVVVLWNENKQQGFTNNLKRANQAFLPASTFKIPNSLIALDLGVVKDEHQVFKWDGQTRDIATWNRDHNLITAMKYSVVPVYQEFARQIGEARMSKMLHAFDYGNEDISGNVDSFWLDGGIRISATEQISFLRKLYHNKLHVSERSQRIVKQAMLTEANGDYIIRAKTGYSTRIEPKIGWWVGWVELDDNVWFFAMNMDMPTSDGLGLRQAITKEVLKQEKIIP", "test": "β-lactamase inhibitory activity, IC50 (nitrocefin hydrolysis)", "type": "biochemical", "procedure": "as §4"}, "OXA-1": {"target": "OXA-1 (Escherichia coli, UniProt P13661)", "sequence (P13661 26-276)": "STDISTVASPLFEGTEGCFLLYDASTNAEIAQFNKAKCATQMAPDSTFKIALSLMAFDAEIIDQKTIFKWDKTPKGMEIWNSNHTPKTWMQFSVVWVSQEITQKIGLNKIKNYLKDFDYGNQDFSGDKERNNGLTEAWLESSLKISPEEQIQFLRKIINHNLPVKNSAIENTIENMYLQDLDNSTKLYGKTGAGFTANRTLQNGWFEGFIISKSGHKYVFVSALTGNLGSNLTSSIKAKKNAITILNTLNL", "test": "β-lactamase inhibitory activity, IC50 (nitrocefin hydrolysis)", "type": "biochemical", "procedure": "as §4"}, "PAE ampC": {"target": "PAE ampC (Pseudomonas aeruginosa, UniProt P24735)", "sequence (P24735 27-397)": "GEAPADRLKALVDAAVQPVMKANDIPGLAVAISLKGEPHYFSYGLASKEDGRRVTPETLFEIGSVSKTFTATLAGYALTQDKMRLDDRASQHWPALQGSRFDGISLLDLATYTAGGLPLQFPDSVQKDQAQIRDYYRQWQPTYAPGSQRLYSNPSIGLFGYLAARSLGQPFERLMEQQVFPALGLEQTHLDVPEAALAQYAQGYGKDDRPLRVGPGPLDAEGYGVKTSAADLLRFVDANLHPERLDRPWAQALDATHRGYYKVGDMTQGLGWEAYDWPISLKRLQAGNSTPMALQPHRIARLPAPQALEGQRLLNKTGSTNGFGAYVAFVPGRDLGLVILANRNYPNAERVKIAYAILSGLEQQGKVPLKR", "test": "β-lactamase inhibitory activity, IC50 (nitrocefin hydrolysis)", "type": "biochemical, P. aeruginosa", "procedure": "as §4"}, "SAU PC1": {"target": "SAU PC1 (Staphylococcus aureus, UniProt P00807)", "sequence (P00807 25-281)": "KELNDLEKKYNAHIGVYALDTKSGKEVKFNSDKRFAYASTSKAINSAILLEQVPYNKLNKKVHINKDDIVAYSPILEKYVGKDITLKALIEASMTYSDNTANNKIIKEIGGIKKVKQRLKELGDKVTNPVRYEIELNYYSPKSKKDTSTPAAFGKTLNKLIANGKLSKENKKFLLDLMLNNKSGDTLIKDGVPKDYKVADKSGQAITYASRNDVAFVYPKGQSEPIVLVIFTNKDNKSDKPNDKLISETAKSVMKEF", "test": "β-lactamase inhibitory activity, IC50 (nitrocefin hydrolysis)", "type": "biochemical, S. aureus", "settings": "SAU PC1; 30 min pre-incubation, nitrocefin 100 μM; read-out: IC50", "procedure": "as §3, §4"}, "TEM-1": {"target": "TEM-1 (Escherichia coli, UniProt P62593)", "sequence (P62593 24-286 limits assumed)": "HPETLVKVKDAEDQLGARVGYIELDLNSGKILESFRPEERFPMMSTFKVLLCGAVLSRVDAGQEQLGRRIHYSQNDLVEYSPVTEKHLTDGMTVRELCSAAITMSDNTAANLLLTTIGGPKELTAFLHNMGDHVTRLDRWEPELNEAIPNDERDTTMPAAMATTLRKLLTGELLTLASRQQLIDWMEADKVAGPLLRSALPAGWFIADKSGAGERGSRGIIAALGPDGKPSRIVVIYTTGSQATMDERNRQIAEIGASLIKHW", "test": "β-lactamase inhibitory activity, IC50 (nitrocefin hydrolysis)", "type": "biochemical", "procedure": "as §4"}, "OXA-23": {"target": "OXA-23 (Acinetobacter baumannii, UniProt Q9L4P2)", "sequence (Q9L4P2 18-273)": "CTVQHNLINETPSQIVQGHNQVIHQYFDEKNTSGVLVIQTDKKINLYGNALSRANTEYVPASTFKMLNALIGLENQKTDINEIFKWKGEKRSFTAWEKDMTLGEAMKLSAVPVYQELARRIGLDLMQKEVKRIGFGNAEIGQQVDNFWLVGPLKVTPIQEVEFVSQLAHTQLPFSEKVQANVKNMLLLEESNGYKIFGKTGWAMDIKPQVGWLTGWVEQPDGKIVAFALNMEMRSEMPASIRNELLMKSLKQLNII", "test": "β-lactamase inhibitory activity, IC50 (nitrocefin hydrolysis)", "type": "biochemical", "procedure": "as §4"}, "KPC-2": {"target": "KPC-2 (Klebsiella pneumoniae, UniProt Q9F663)", "sequence (Q9F663 25-293 limits assumed)": "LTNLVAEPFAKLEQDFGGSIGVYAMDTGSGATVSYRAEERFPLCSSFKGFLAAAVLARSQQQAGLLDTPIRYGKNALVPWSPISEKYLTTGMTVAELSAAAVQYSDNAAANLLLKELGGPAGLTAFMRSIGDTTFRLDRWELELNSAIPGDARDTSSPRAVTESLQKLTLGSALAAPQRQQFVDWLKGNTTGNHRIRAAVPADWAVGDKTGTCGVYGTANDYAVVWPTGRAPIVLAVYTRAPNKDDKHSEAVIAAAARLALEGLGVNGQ", "test": "β-lactamase inhibitory activity, IC50 (nitrocefin hydrolysis)", "type": "biochemical", "procedure": "as §3, §4"}, "OXA-15": {"target": "OXA-15 (Pseudomonas aeruginosa, UniProt Q51574)", "sequence (Q51574 22-275)": "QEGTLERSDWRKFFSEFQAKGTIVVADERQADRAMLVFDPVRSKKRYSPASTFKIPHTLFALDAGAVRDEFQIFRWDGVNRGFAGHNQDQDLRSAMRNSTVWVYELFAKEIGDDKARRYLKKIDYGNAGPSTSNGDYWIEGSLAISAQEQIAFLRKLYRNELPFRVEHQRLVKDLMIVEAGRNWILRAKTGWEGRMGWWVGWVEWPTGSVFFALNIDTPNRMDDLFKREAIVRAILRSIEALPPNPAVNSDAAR", "test": "β-lactamase inhibitory activity, IC50 (nitrocefin hydrolysis)", "type": "biochemical", "procedure": "as §4"}, "OXA-11": {"target": "OXA-11 (Pseudomonas aeruginosa, UniProt Q06778)", "sequence (Q06778 21-266)": "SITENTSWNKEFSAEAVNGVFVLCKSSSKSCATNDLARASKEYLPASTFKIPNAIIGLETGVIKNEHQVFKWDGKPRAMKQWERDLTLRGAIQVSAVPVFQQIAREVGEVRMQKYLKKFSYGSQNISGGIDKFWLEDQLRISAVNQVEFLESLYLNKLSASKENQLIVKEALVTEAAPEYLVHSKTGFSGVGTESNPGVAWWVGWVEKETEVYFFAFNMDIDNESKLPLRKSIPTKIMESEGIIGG", "test": "β-lactamase inhibitory activity, IC50 (nitrocefin hydrolysis)", "type": "biochemical", "procedure": "as §4"}, "[1]": {"test_system": "Proteus mirabilis (PMI) isolates", "test": "microbe, parasite or virus in culture", "type": "cell-based", "settings": "Proteus mirabilis, compound alone, read-out: MIC", "experimental": "(§1) Method 2: MIC of Compounds Alone and Combined with Antibacterials Against Bacterial Isolates\n(§2) Compounds of the present invention were assessed against genotyped bacterial strains (Table 3, 4) alone or in combination with an antibacterial (Table 2). […] Log phase bacterial suspensions were adjusted to a final density of 5.10^5 CFU/mL in cation-adjusted Mueller-Hinton broth (ca-MHB; Becton-Dickinson and Company) and added to each well (98 μL). Microplates were incubated for 16-20 h at 35° C. in ambient air. The MIC of the compounds was defined as the lowest concentration of said compounds that prevented bacterial growth as read by visual inspection. The MIC of ATB at each compound concentration was defined as the lowest concentration of ATB that prevented bacterial growth as read by visual inspection."}, "SHV-1": {"target": "SHV-1 (Klebsiella pneumoniae, UniProt P0AD64)", "sequence (P0AD64 22-286)": "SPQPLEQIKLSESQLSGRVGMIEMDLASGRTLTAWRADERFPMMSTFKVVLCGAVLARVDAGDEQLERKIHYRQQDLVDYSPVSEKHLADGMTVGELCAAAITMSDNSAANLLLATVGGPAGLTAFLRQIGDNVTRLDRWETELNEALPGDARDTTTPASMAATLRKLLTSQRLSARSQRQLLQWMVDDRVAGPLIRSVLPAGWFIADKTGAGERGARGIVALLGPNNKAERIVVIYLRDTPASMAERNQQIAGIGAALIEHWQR", "test": "β-lactamase inhibitory activity, IC50 (nitrocefin hydrolysis)", "type": "biochemical", "procedure": "as §4"}, "OXA-58": {"target": "OXA-58 (Acinetobacter baumannii, UniProt Q2TR58)", "sequence (Q2TR58 19-280)": "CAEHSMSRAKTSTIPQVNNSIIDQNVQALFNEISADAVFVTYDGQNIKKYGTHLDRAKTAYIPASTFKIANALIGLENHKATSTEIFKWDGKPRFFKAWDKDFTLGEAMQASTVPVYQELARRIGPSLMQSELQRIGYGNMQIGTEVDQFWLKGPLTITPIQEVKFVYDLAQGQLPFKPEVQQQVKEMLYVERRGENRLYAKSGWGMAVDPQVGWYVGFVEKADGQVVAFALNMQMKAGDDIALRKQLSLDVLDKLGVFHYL", "test": "β-lactamase inhibitory activity, IC50 (nitrocefin hydrolysis)", "type": "biochemical", "procedure": "as §4"}, "P99 ampC": {"target": "P99 ampC (Enterobacter cloacae, UniProt P05364)", "sequence (P05364 21-381)": "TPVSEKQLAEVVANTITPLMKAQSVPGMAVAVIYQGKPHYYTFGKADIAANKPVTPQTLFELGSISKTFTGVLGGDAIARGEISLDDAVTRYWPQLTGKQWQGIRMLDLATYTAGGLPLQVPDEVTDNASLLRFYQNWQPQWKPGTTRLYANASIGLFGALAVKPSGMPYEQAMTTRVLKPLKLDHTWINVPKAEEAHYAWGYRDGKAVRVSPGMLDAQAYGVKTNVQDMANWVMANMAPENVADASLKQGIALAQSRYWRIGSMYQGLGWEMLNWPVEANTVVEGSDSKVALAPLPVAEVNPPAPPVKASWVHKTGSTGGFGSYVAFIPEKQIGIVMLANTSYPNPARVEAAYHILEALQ", "test": "β-lactamase inhibitory activity, IC50 (nitrocefin hydrolysis)", "type": "biochemical", "procedure": "as §3, §4"}, "[2]": {"test_system": "Enterobacter aerogenes (EAE) isolates", "test": "MIC of compounds alone and combined with antibacterials, broth microdilution (CLSI)", "type": "cell-based", "settings": "Klebsiella aerogenes", "experimental": "as §1, §2"}, "[3]": {"test_system": "Escherichia coli (ECO) isolates", "test": "MIC of compounds alone and combined with antibacterials, broth microdilution (CLSI)", "type": "cell-based", "settings": "Escherichia coli, compound alone, read-out: MIC", "experimental": "as §1, §2"}, "[4]": {"test_system": "Serratia marcescens (SMA) isolates", "test": "MIC of compounds alone and combined with antibacterials, broth microdilution (CLSI)", "type": "cell-based", "settings": "Serratia marcescens; strain SMA UFR143; compound alone; read-out: MIC", "experimental": "as §1, §2"}, "[5]": {"test_system": "Citrobacter freundii (CFR) isolates", "test": "MIC of compounds alone and combined with antibacterials, broth microdilution (CLSI)", "type": "cell-based", "settings": "Citrobacter freundii, strain CFR UFR250; compound alone", "experimental": "as §1, §2"}, "[6]": {"test_system": "Klebsiella pneumoniae (KPN) isolates", "test": "MIC of compounds alone and combined with antibacterials, broth microdilution (CLSI)", "type": "cell-based", "settings": "Klebsiella pneumoniae, compound alone, read-out: MIC", "experimental": "as §1, §2"}, "SHV-12": {"target": "SHV-12 (Klebsiella pneumoniae, UniProt P0AD64, E235K/G234S/L31Q)", "sequence (P0AD64 22-286 L31Q/G234S/E235K)": "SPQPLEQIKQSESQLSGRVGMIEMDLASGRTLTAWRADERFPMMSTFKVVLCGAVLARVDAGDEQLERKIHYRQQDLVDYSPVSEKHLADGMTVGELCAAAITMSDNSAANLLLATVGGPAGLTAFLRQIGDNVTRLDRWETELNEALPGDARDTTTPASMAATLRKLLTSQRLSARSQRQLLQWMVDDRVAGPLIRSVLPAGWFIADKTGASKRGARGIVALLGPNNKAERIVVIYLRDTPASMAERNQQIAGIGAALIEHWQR", "test": "β-lactamase inhibitory activity, IC50 (nitrocefin hydrolysis)", "type": "biochemical", "settings": "SHV-12; 30 min pre-incubation, nitrocefin 100 μM; read-out: IC50", "procedure": "as §3, §4"}, "OXA-40": {"target": "OXA-40 (Acinetobacter baumannii, UniProt Q8RLA6)", "sequence (Q8RLA6 entry or part of it)": "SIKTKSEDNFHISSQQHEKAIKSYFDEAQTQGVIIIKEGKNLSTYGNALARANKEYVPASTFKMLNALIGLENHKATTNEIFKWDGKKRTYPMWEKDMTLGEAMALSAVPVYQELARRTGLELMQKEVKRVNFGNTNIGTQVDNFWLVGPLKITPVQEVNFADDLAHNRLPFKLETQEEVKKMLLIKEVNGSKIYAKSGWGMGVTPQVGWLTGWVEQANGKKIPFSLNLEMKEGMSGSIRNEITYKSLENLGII", "test": "β-lactamase inhibitory activity, IC50 (nitrocefin hydrolysis)", "type": "biochemical", "procedure": "as §4"}, "[7]": {"test_system": "Providencia stuartii (PST) isolates", "test": "MIC of compounds alone and combined with antibacterials, broth microdilution (CLSI)", "type": "cell-based", "settings": "Providencia stuartii; strain PST UFR235; compound alone; read-out: MIC", "experimental": "as §1\nCompounds of the present invention were assessed against genotyped bacterial strains (Table 3, 4) alone or in combination with an antibacterial (Table 2). […]. Briefly, compounds alone according to the invention were prepared in DMSO and spotted (2 μL each) on sterile polystyrene plates (Corning, 3788). Combinations of compounds and antibiotics dilutions were prepared in DMSO and spotted (1 μL each) on sterile polystyrene plates (Corning, 3788). Log phase bacterial suspensions were adjusted to a final density of 5.10^5 CFU/mL in cation-adjusted Mueller-Hinton broth (ca-MHB; Becton-Dickinson and Company) and added to each well (98 μL). Microplates were incubated for 16-20 h at 35° C. in ambient air. The MIC of the compounds was defined as the lowest concentration of said compounds that prevented bacterial growth as read by visual inspection. The MIC of ATB at each compound concentration was defined as the lowest concentration of ATB that prevented bacterial growth as read by visual inspection."}}, "note": "Like-named read-outs stand apart in the source and are kept apart here.", "data": [{"smiles": "O=C1N2CC=C(c3cnoc3)C(C2)N1OC(F)(F)C(=O)[O-].[Li+]", "note": "(stereo not drawn) [AF1, Lithium difluoro-(4-isoxazol-4-yl-7-oxo-1,6-diaza-bicyclo[3.2.1]oct-3-en-6-yloxy)-acetate]", "values": [{"measurement": "IC50", "setting": "CTX-M-15", "result": 2.4, "unit": "nM"}, {"measurement": "IC50", "setting": "OXA-48", "result": 3, "unit": "nM"}, {"measurement": "IC50", "setting": "OXA-1", "result": 1600, "unit": "nM"}, {"measurement": "IC50", "setting": "PAE ampC", "result": 4.5, "unit": "µM"}, {"measurement": "IC50", "setting": "SAU PC1", "result": 560, "unit": "nM"}, {"measurement": "IC50", "setting": "TEM-1", "result": 10, "unit": "nM"}, {"measurement": "IC50", "setting": "OXA-23", "result": 110, "unit": "nM"}, {"measurement": "IC50", "setting": "KPC-2", "result": 510, "unit": "nM"}, {"measurement": "IC50", "setting": "OXA-15", "result": 24, "unit": "nM"}, {"measurement": "IC50", "setting": "OXA-11", "result": 250, "unit": "nM"}, {"measurement": "MIC", "setting": "[1]; strain PMI UFR126", "result": 8, "unit": "µg/mL"}, {"measurement": "MIC", "setting": "[1]; strain PMI UFR127", "result": 4, "unit": "µg/mL"}, {"measurement": "IC50", "setting": "SHV-1", "result": 20, "unit": "nM"}, {"measurement": "IC50", "setting": "OXA-58", "result": 15, "unit": "nM"}, {"measurement": "IC50", "setting": "P99 ampC", "result": 2200, "unit": "nM"}, {"measurement": "MIC", "setting": "[2]", "result": 32, "unit": "µg/mL"}, {"measurement": "MIC", "setting": "[3]; strain ECO 190317", "result": 2, "unit": "µg/mL"}, {"measurement": "MIC", "setting": "[3]; strain ECO 190457", "result": 4, "unit": "µg/mL"}, {"measurement": "MIC", "setting": "[3]; strain ECO UFR16", "result": 8, "unit": "µg/mL"}, {"measurement": "MIC", "setting": "[3]; strain ECO UFR20", "result": 16, "unit": "µg/mL"}, {"measurement": "MIC", "setting": "[3]; strain ECO UFR61O", "result": 8, "unit": "µg/mL"}, {"measurement": "MIC", "setting": "[3]; strain ECO UFR209", "result": 8, "unit": "µg/mL"}, {"measurement": "MIC", "setting": "[4]", "result": 32, "unit": "µg/mL"}, {"measurement": "MIC", "setting": "[5]", "result": "> 32", "unit": "µg/mL"}, {"measurement": "MIC", "setting": "[6]; strain KPN 110376", "result": "> 32", "unit": "µg/mL"}, {"measurement": "MIC", "setting": "[6]; strain KPN 131119", "result": "> 32", "unit": "µg/mL"}, {"measurement": "MIC", "setting": "[6]; strain KPN 190270", "result": "> 32", "unit": "µg/mL"}, {"measurement": "MIC", "setting": "[6]; strain KPN UFR25", "result": "> 32", "unit": "µg/mL"}, {"measurement": "MIC", "setting": "[6]; strain KPN UFR66", "result": "> 32", "unit": "µg/mL"}, {"measurement": "MIC", "setting": "[6]; strain KPN UFR68", "result": "> 32", "unit": "µg/mL"}, {"measurement": "IC50", "setting": "SHV-12", "result": 3.8, "unit": "nM"}, {"measurement": "IC50", "setting": "OXA-40", "result": 120, "unit": "nM"}, {"measurement": "MIC", "setting": "[7]", "result": "> 32", "unit": "µg/mL"}]}]}
